Experimental findings from patent US9999622B2, “Pyrazolothiazole compound and medicine comprising same” (NIPPON SHINYAKU CO., LTD., priority 2014, dated 2018) are described below.

The target in one assay is T1, JAK3 (Homo sapiens, UniProt P52333).
T1 construct: purchased Carna Biosciences, Inc
T1 sequence (P52333 1-1124): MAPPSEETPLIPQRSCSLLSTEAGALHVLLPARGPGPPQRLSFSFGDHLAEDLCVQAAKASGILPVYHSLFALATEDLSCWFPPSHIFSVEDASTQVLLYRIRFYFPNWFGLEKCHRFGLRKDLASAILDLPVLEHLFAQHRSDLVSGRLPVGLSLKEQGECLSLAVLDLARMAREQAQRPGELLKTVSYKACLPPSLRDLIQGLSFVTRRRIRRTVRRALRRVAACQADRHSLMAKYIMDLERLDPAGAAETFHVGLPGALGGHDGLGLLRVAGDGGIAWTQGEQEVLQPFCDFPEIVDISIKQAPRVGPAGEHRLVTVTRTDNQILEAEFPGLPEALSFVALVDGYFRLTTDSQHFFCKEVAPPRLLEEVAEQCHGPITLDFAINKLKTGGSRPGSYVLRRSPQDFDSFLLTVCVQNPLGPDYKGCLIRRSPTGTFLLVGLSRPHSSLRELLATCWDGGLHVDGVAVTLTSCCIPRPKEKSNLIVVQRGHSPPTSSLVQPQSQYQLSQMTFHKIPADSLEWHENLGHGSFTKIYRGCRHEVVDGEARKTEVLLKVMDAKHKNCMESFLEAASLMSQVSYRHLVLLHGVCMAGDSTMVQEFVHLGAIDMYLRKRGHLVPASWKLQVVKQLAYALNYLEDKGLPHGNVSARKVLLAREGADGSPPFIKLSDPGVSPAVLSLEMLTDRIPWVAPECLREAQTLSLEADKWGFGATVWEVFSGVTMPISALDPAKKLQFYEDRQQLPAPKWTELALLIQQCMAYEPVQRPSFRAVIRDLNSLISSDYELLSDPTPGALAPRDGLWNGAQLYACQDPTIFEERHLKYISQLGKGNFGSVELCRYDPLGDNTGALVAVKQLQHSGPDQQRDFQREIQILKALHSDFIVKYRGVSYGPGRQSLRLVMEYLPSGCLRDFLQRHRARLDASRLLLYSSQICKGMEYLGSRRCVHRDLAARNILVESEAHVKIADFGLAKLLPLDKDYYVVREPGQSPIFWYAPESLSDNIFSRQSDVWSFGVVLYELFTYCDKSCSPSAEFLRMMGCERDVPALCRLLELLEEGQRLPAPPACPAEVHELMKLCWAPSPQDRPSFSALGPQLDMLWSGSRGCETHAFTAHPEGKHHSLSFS
Put plainly: JAK tyrosine kinase inhibitory activity in the presence of 1 mM ATP (ELISA), JAK3. It is filed as biochemical. In outline: (§1)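 ELISA read-out: HRP-labelled anti-phosphotyrosine antibody with TMB, absorbance 450 nm, after 1 h kinase reaction at 30 °C in presence of 1 mM ATP. Kinase diluted to 7.5 nM (JAK1) or 0.75 nM (JAK2/JAK3) in Tris-HCl pH 7.5 buffer with DTT; compounds tested in duplicate.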
(In an ELISA, binding on a coated surface is turned into a signal by an enzyme label.)

For the next assay, the target named is T2, JAK1 (Homo sapiens, UniProt P23458).
T2 construct: purchased Carna Biosciences, Inc
Put plainly: JAK tyrosine kinase inhibitory activity in the presence of 1 mM ATP (ELISA), JAK1. It is filed as biochemical. In a few lines:
as §1

The subject of assay [1] is Aspergillus-induced airway inflammation model. Put plainly: Inhibitory effect on Aspergillus-induced airway inflammation model. It is filed as in vivo. The settings on record: mice; for inhibition in vivo at 10000 µg/mL, 100 mg/kg: Mus musculus, Eosinophil, po, 240 h, 10 mg/mL suspension at 10 mL/kg twice a day Day 0 to Day 9, BALF collected at Day 10, read-out: Inhibition rate on count of invasive eosinophil in BALF (%); for Inhibition rate on count of invasive eosinophil in BALF (%): oral, 10 mg/mL suspension at 10 mL/kg twice a day Day 0 to Day 9, BALF collected at Day 10. The procedure:
Aspergillus fumigatus extracts (Greer laboratories, Inc.) were adjusted to 400 μg/mL with PBS. The Aspergillus fumigatus solutions thus prepared were administered to mice as nasal drops (50 μL) on Day 0, Day 1, Day 7 and Day 8. The nasal drop was administered one hour after the administration of test compounds in the morning. The test compound was administered twice a day in the morning and evening of Day 0 to Day 9. The test compound was suspended in 0.5% methylcellulose at 10 mg/mL, and orally administered at the dosage of 10 mL/kg. The bronchoalveolar lavage fluid (BALF) was collected at Day 10, and the total white blood cell count in BALF was measured using Celltac (NIHON KOHDEN). The ratio of eosinophil in total white blood cell was calculated using ADVIA 120 (Siemens Healthcare Diagnostics), and the ratio was multiplied by the total white blood cell count to determine the eosinophil count in BALF. The inhibition rate of the test compound was determined, assuming the inhibitory ratio in the treatment with Aspergillus fumigatus extract and 0.5% methylcellulose as 0% and the inhibitory ratio in the treatment without Aspergillus fumigatus extract but with 0.5% methylcellulose as 100%.

The next assay has as its target T3, JAK2 (Homo sapiens, UniProt O60674).
T3 construct: purchased Carna Biosciences, Inc
Put plainly: JAK tyrosine kinase inhibitory activity in the presence of 1 mM ATP (ELISA), JAK2. It is filed as biochemical. In outline: as §1

Counter-ions that a name gives are not always drawn.

T3 sequence (O60674 whole entry): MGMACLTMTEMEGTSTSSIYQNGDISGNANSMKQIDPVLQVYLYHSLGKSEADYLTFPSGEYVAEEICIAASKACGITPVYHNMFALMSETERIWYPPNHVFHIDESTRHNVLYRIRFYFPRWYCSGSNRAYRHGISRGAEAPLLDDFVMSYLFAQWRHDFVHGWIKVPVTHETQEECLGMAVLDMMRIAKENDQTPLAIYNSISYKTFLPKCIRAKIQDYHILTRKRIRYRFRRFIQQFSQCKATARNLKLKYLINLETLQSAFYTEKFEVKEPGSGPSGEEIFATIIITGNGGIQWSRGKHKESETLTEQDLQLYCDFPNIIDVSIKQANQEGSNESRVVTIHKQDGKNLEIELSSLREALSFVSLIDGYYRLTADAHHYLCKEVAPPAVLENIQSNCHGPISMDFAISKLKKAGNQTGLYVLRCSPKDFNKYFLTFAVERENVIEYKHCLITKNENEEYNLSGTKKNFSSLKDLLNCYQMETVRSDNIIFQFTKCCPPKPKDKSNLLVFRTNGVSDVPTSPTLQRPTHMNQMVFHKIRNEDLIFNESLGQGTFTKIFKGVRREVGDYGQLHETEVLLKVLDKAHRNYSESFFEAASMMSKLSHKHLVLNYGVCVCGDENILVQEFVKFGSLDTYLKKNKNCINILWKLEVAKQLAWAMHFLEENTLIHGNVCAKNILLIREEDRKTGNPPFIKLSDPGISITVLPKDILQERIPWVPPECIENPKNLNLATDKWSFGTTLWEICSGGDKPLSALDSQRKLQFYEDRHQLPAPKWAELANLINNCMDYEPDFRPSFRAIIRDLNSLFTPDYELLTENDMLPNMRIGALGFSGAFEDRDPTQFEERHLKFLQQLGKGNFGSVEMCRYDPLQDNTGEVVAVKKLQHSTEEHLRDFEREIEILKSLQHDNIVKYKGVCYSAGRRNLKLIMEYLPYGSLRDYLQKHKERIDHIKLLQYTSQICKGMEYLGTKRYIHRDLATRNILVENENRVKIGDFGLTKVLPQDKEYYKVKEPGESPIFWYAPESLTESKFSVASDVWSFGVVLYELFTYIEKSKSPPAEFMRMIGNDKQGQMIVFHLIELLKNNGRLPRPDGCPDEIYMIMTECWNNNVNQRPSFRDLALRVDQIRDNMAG
T2 sequence (P23458 whole entry): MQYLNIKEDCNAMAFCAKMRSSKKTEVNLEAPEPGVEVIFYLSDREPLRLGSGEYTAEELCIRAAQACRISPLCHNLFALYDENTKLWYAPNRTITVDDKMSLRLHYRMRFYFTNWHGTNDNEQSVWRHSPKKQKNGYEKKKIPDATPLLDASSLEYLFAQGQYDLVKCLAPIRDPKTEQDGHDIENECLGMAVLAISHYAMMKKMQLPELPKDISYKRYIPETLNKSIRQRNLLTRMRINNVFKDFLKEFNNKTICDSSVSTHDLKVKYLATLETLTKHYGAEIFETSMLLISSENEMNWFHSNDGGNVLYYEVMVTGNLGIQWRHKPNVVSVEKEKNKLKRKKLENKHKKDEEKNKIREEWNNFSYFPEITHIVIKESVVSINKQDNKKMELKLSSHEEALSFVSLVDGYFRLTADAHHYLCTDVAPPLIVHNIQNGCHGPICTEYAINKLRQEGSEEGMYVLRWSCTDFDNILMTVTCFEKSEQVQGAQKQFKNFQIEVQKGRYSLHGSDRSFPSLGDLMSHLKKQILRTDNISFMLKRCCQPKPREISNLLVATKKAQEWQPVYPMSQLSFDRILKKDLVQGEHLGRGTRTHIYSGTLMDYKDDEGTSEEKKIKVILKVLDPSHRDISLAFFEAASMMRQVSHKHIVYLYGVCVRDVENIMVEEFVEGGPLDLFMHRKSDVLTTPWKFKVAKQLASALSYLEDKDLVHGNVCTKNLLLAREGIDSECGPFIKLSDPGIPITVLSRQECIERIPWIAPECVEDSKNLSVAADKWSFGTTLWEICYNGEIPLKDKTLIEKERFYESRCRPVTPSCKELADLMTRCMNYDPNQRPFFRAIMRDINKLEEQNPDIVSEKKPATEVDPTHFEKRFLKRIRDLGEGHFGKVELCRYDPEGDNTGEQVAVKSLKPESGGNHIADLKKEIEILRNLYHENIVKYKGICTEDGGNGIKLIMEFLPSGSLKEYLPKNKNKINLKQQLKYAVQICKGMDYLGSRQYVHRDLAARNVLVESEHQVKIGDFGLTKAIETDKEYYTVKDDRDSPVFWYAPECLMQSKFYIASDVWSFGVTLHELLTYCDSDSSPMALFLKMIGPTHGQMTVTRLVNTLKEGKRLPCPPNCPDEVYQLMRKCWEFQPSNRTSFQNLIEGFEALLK

Take `C[C@H](Nc1cc(C(=O)N2CCC(NC(=O)C3CC3)CC2)nc(-c2cnn3ccsc23)n1)C1CC1` [Example 1, N-(1-{[6-{[(1S)-1-Cyclopropylethyl]amino}-2-(pyrazolo[5,1-b][1,3]thiazol-7-yl)pyrimidin-4-yl]carbonyl}piperidin-4-yl)cyclopropanecarboxamide hydrochloride]: the half-maximal inhibitory concentration (IC50) was determined as 3400 nM on JAK3, 52 nM at JAK1 and 3400 nM at JAK2. For the same molecule, the inhibition in vivo at 10000 µg/mL, 100 mg/kg in assay [1] amounted to 43%.

As for `C[C@@H](Nc1cc(C(=O)N2CCC(NC(=O)C3CC3)CC2)nc(-c2cnn3ccsc23)n1)C(C)(C)C` [Example 16, N-(1-{[6-{[(2R)-3,3-Dimethylbutan-2-yl]amino}-2-(pyrazolo[5,1-b][1,3]thiazol-7-yl)pyrimidin-4-yl]carbonyl}piperidin-4-yl)cyclopropanecarboxamide], the IC50 on JAK3 was found to be 2200 nM; at JAK1, 53 nM; at JAK2 it was 2200 nM. Also, the inhibition in vivo at 10000 µg/mL, 100 mg/kg in assay [1] came out at 33%.

In the case of `C[C@H](Nc1cc(C(=O)N2CCC(O)CC2)nc(-c2cnn3ccsc23)n1)C1CC1` [Example 20, [6-{[(1S)-1-Cyclopropylethyl]amino}-2-(pyrazolo[5,1-b][1,3]thiazol-7-yl)pyrimidin-4-yl](4-hydroxypiperidin-1-yl)methanone hydrochloride], the IC50 on JAK3 came to 4200 nM; at JAK1, 1400 nM; on JAK2 it was 4700 nM. Further, in assay [1], the inhibition in vivo at 10000 µg/mL, 100 mg/kg is 61%.

As to `C[C@H](Nc1cc(C(=O)N2CCC(NC(=O)OC(C)(C)CF)CC2)nc(-c2cnn3ccsc23)n1)C1CC1` [Example 21, 1-Fluoro-2-methylpropan-2-yl (1-{[6-{[(1S)-1-cyclopropylethyl]amino}-2-(pyrazolo[5,1-b][1,3]thiazol-7-yl)pyrimidin-4-yl]carbonyl}piperidin-4-yl)carbamate hydrochloride], the figures for the IC50 on JAK3, at JAK1 and at JAK2 were greater than 10000 nM, 230 nM and 2200 nM, respectively. The inhibition in vivo at 10000 µg/mL, 100 mg/kg in assay [1] worked out at 47%.

Consider `COC(=O)NC1CCN(C(=O)c2cc(N[C@@H](C)C(C)(C)C)nc(-c3cnn4ccsc34)n2)CC1` [Example 22, Methyl (1-{[6-{[(2S)-3,3-dimethylbutan-2-yl]amino}-2-(pyrazolo[5,1-b][1,3]thiazol-7-yl)pyrimidin-4 yl]carbonyl}piperidin-4-yl)carbamate], for which the figures for the IC50 at JAK3, at JAK1 and on JAK2 were 3700 nM, 130 nM and 800 nM, respectively. For the same molecule, in assay [1], the inhibition in vivo at 10000 µg/mL, 100 mg/kg was 57%.

Turning to `C[C@H](Nc1cc(C(=O)N2CCC(O)CC2)nc(-c2cnn3ccsc23)n1)C(C)(C)C` [Example 23, [6-{[(2S)-3,3-Dimethylbutan-2-yl]amino}-2-(pyrazolo[5,1-b][1,3]thiazol-7-yl)pyrimidin-4-yl](4-hydroxypiperidin-1-yl)methanone], the IC50 on JAK3 was found to be 3300 nM; on JAK1 it was 860 nM; on JAK2 it was 870 nM. In addition, in assay [1], the inhibition in vivo at 10000 µg/mL, 100 mg/kg came out at 31%.

On to `COC(=O)NC1CCN(C(=O)c2cc(N[C@H](C)C(C)C)nc(-c3cnn4ccsc34)n2)CC1` [Example 24, Methyl (1-{[6-{[(2R)-3-methylbutan-2-yl]amino}-2-(pyrazolo[5,1-b][1,3]thiazol-7-yl)pyrimidin-4-yl]carbonyl}piperidin-4-yl)carbamate hydrochloride], for which the IC50 at JAK3 worked out at 4200 nM; on JAK1, 290 nM; on JAK2, 1500 nM. Also, the inhibition in vivo at 10000 µg/mL, 100 mg/kg in assay [1] came out at 35%.

`COC(=O)NC1CCN(C(=O)c2cc(N[C@@H](C)C(C)C)nc(-c3cnn4ccsc34)n2)CC1` [Example 25, Methyl (l-{[6-{[(2S)-3-methylbutan-2-yl]amino}-2-(pyrazolo[5,1-b][1,3]thiazol-7-yl)pyrimidin-4-yl]carbonyl}piperidin-4-yl)carbamate hydrochloride]: the IC50 at JAK3 worked out at 2000 nM; at JAK1 it was 200 nM; on JAK2, 800 nM. Besides, in assay [1], the inhibition in vivo at 10000 µg/mL, 100 mg/kg is 30%.

With `COC(=O)NC1CCN(C(=O)c2cc(N[C@@H](C)C3CC3)nc(-c3cnn4ccsc34)n2)CC1` [Example 26, Methyl (1-{[6-{[(1S)-1-cycloproropylethyl]amino}-2-(pyrazolo[5,1-b][1,3]thiazol-7-yl)pyrimidin-4-yl]carbonyl}piperidin-4-yl)carbamate], the values for the 50% inhibitory concentration (IC50) on JAK3, at JAK1 and at JAK2 were 2100 nM, 75 nM and 2100 nM, respectively. For the same molecule, the inhibition in vivo at 10000 µg/mL, 100 mg/kg in assay [1] was 58%.

For the molecule `COC(=O)NC1CCN(C(=O)c2cc(N[C@@H](C)C3CC3)nc(-c3cnn4ccsc34)n2)CC1.Cl` [Example 27, Methyl (1-{[6-{[(1S)-1-cyclopropylethyl]amino}-2-(pyrazolo[5,1-b][1,3]thiazol-7-yl)pyrimidin-4-yl]carbonyl}piperidin-4-yl)carbamate hydrochloride], the 50% inhibitory concentration (IC50) came to 4300 nM on JAK3, 140 nM at JAK1 and 2500 nM at JAK2. Further, the “Inhibition rate on count of invasive eosinophil in BALF (%)” value in assay [1] is 62%.

Take `CCOC(=O)NC1CCN(C(=O)c2cc(N[C@@H](C)C3CC3)nc(-c3cnn4ccsc34)n2)CC1` [Example 28, Ethyl (1-{[6-{[(1S)-1-cyclopropylethyl]amino}-2-(pyrazolo[5,1-b][1,3]thiazol-7-yl)pyrimidin-4-yl]carbonyl}piperidin-4-yl)carbamate]: the IC50 on JAK3 is greater than 10000 nM; on JAK1, 120 nM; at JAK2 it was 2100 nM. Moreover, the inhibition in vivo at 10000 µg/mL, 100 mg/kg in assay [1] was found to be 52%.

For `CC[C@@H](C)Nc1cc(C(=O)N2CCC(NC(=O)OC)CC2)nc(-c2cnn3ccsc23)n1.Cl` [Example 127, Methyl [1-({6-[(2R)-butan-2-ylamino]-2-(pyrazolo[5,1-b][1,3]thiazol-7-yl)pyrimidin-4-yl}carbonyl)piperidin-4-yl]carbamate hydrochloride], at JAK1, the IC50 was 590 nM. Moreover, the “Inhibition rate on count of invasive eosinophil in BALF (%)” value in assay [1] is listed as 38%.

On to `COC(=O)NC1CCN(C(=O)c2cc(N[C@@H]3CCN(C(=O)C4CCC4)C3)nc(-c3cnn4ccsc34)n2)CC1` [Example 206, Methyl 1-[6-[(3R)-1-(cyclobutanecarbonyl)pyrrolidin-3-yl]amino-2-(pyrazolo[5,1-b][1,3]thiazol-7-yl)pyrimidine-4-carbonyl]piperidin-4-ylcarbamate], for which the half-inhibitory concentration (IC50) is greater than 10000 nM at JAK3, 940 nM on JAK1 and greater than 10000 nM at JAK2.

For the molecule `CCCC(=O)N1CC[C@@H](Nc2cc(C(=O)N3CCC(NC(=O)OC)CC3)nc(-c3cnn4ccsc34)n2)C1` [Example 207, Methyl 1-[6-[(3R)-1-butanoylpyrrolidin-3-yl]amino-2-(pyrazolo[5,1-b][1,3]thiazol-7-yl)pyrimidine-4-carbonyl]piperidin-4-ylcarbamate], the IC50 at JAK3 is greater than 10000 nM; on JAK1 it was 410 nM; at JAK2 it was greater than 10000 nM.

As a reminder, the IC50 is the midpoint of a concentration-inhibition curve.
